Assay results taken from patent US6916812B2, “Alpha-aminoamide derivatives as melanocortin agonists” (Bristol-Myers Squibb Company, priority 2001, dated 2005).

Biological target: T1, cloned human MC4R (Homo sapiens, UniProt P32245)
T1 construct: made in house; host or cells: Hi5 insect cells (baculovirus infection); membrane preparation
Test: Membrane binding assay: competitive inhibition of [125I]NDP-α-MSH binding
Settings: for Displacement Rate (%) (at 10 μM) / inhibition at 10 µM: [125I]NDP-α-MSH displacement; for IC50: read-out: MC4R IC50; for inhibition at 10 µM: read-out: Displacement Rate (%) (at 10 μM)

T1 sequence (P32245 whole entry): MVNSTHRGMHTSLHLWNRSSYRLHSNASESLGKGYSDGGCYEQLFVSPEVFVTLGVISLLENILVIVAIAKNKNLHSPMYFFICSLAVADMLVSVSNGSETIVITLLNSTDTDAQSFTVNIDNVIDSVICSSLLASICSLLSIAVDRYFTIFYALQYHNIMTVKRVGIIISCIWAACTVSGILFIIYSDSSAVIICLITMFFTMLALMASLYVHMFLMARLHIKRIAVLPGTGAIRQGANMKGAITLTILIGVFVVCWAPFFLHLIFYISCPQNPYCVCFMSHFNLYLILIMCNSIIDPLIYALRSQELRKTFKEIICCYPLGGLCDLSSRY

Row | Structure (SMILES) | Displacement Rate (%) (at 10 μM) | IC50 | inhibition at 10 µM
1 | N[C@@H](Cc1ccc(OCCc2ccccc2Cl)cc1)C(=O)N1CCN(Cc2cccc(Cl)c2Cl)CC1 [Example 242] | +++ (+++ = 91-100) | < 1500 nM | –
2 | COc1cccc(CCOc2ccc(C[C@H](N)C(=O)N3CCN(Cc4cccc(Cl)c4Cl)CC3)cc2)c1 [Example 243] | – | < 1500 nM | 91 to 100%
3 | N[C@@H](Cc1ccc(OCCc2ccc(Cl)cc2Cl)cc1)C(=O)N1CCN(Cc2cccc(Cl)c2Cl)CC1 [Example 246] | +++ (+++ = 91-100) | < 1500 nM | –
4 | N[C@@H](Cc1ccc(OCCc2cccc(Br)c2)cc1)C(=O)N1CCN(Cc2cccc(Cl)c2Cl)CC1 [Example 248] | +++ (+++ = 91-100) | < 1500 nM | –
5 | N[C@@H](Cc1ccc(OCCc2cccc(Cl)c2)cc1)C(=O)N1CCN(Cc2cccc(Cl)c2Cl)CC1 [Example 249] | +++ (+++ = 91-100) | < 1500 nM | –
6 | N[C@@H](Cc1ccc(OCCc2cccc(C(F)(F)F)c2)cc1)C(=O)N1CCN(Cc2cccc(Cl)c2Cl)CC1 [Example 255] | +++ (+++ = 91-100) | < 1500 nM | –
7 | N[C@@H](Cc1ccc(OCCc2cccc([N+](=O)[O-])c2)cc1)C(=O)N1CCN(Cc2cccc(Cl)c2Cl)CC1 [Example 257] | +++ (+++ = 91-100) | 1500 to 3000 nM | –
8 | N[C@@H](Cc1ccc(OCCc2ccc([N+](=O)[O-])cc2)cc1)C(=O)N1CCN(Cc2cccc(Cl)c2Cl)CC1 [Example 258] | ++ (++ = 71-90) | > 3000 nM | –
9 | COc1ccc(CCOc2ccc(C[C@H](N)C(=O)N3CCN(Cc4cccc(Cl)c4Cl)CC3)cc2)cc1OC [Example 259] | + (+ = 35-70) | > 3000 nM | –
10 | CC(CCOc1ccc(C[C@H](N)C(=O)N2CCN(Cc3cccc(Cl)c3Cl)CC2)cc1)c1ccccc1 (some centres unmarked) [Example 263] | +++ (+++ = 91-100) | < 1500 nM | –
11 | COc1ccc(CCCOc2ccc(C[C@H](N)C(=O)N3CCN(Cc4cccc(Cl)c4Cl)CC3)cc2)cc1OC [Example 265] | ++ (++ = 71-90) | < 1500 nM | –
12 | CCN(CCOc1ccc(C[C@H](N)C(=O)N2CCN(Cc3cccc(Cl)c3Cl)CC2)cc1)c1cccc(C)c1 [Example 282] | +++ (+++ = 91-100) | < 1500 nM | –
13 | N[C@@H](Cc1ccc(-c2ccccc2)cc1)C(=O)N1CCN(Cc2cccc(Cl)c2Cl)CC1 [Example 289] | – | < 1500 nM | –
14 | Cc1ccc(-c2ccc(C[C@H](N)C(=O)N3CCN(Cc4cccc(Cl)c4Cl)CC3)cc2)cc1 [Example 290] | – | < 1500 nM | 91 to 100%
15 | CCc1ccc(-c2ccc(C[C@H](N)C(=O)N3CCN(Cc4cccc(Cl)c4Cl)CC3)cc2)cc1 [Example 291] | – | < 1500 nM | 91 to 100%
16 | N[C@@H](Cc1ccc(-c2ccc(OC(F)(F)F)cc2)cc1)C(=O)N1CCN(Cc2cccc(Cl)c2Cl)CC1 [Example 292] | – | < 1500 nM | 91 to 100%
17 | N[C@@H](Cc1ccc(-c2ccc3ccccc3c2)cc1)C(=O)N1CCN(Cc2cccc(Cl)c2Cl)CC1 [Example 293] | – | < 1500 nM | 91 to 100%
18 | N[C@@H](Cc1ccc(-c2ccc(Cl)c(Cl)c2)cc1)C(=O)N1CCN(Cc2cccc(Cl)c2Cl)CC1 [Example 294] | – | < 1500 nM | 91 to 100%
19 | CSc1ccc(-c2ccc(C[C@H](N)C(=O)N3CCN(Cc4cccc(Cl)c4Cl)CC3)cc2)cc1 [Example 295] | – | < 1500 nM | 91 to 100%

Row | Structure (SMILES) | Displacement Rate (%) (at 10 μM) | IC50 | inhibition at 10 µM
20 | N[C@@H](Cc1ccc(-c2ccc(F)cc2)cc1)C(=O)N1CCN(Cc2cccc(Cl)c2Cl)CC1 [Example 296] | – | < 1500 nM | 91 to 100%
21 | N[C@@H](Cc1ccc(-c2cc(C(F)(F)F)cc(C(F)(F)F)c2)cc1)C(=O)N1CCN(Cc2cccc(Cl)c2Cl)CC1 [Example 297] | – | < 1500 nM | 91 to 100%
22 | N[C@@H](Cc1ccc(-c2ccc(Cl)cc2)cc1)C(=O)N1CCN(Cc2cccc(Cl)c2Cl)CC1 [Example 298] | – | < 1500 nM | 91 to 100%
23 | N[C@@H](Cc1ccc(-c2cccc(Cl)c2Cl)cc1)C(=O)N1CCN(Cc2cccc(Cl)c2Cl)CC1 [Example 299] | – | < 1500 nM | 91 to 100%
24 | N[C@@H](Cc1ccc(-c2cccc3ccccc23)cc1)C(=O)N1CCN(Cc2cccc(Cl)c2Cl)CC1 [Example 300] | – | < 1500 nM | 91 to 100%
25 | N[C@@H](Cc1ccc(-c2cccc(Cl)c2)cc1)C(=O)N1CCN(Cc2cccc(Cl)c2Cl)CC1 [Example 301] | – | < 1500 nM | 91 to 100%
26 | N[C@@H](Cc1ccc(-c2ccc(C(F)(F)F)cc2)cc1)C(=O)N1CCN(Cc2cccc(Cl)c2Cl)CC1 [Example 304] | – | < 1500 nM | 91 to 100%
27 | CC(C)(C)c1ccc(-c2ccc(C[C@H](N)C(=O)N3CCN(Cc4cccc(Cl)c4Cl)CC3)cc2)cc1 [Example 305] | – | < 1500 nM | 91 to 100%
28 | N[C@@H](Cc1ccc(-c2ccc(F)c(Cl)c2)cc1)C(=O)N1CCN(Cc2cccc(Cl)c2Cl)CC1 [Example 306] | – | < 1500 nM | 91 to 100%
29 | N[C@@H](Cc1ccc(-c2ccc(Cl)cc2Cl)cc1)C(=O)N1CCN(Cc2cccc(Cl)c2Cl)CC1 [Example 307] | – | < 1500 nM | 91 to 100%
30 | CCOc1cccc(-c2ccc(C[C@H](N)C(=O)N3CCN(Cc4cccc(Cl)c4Cl)CC3)cc2)c1 [Example 308] | – | < 1500 nM | 91 to 100%
31 | N[C@@H](Cc1ccc(-c2ccccc2F)cc1)C(=O)N1CCN(Cc2cccc(Cl)c2Cl)CC1 [Example 309] | – | < 1500 nM | 91 to 100%
32 | CCOc1ccc(-c2ccc(C[C@H](N)C(=O)N3CCN(Cc4cccc(Cl)c4Cl)CC3)cc2)cc1 [Example 310] | – | < 1500 nM | 91 to 100%
33 | N[C@@H](Cc1ccc(-c2cccc(F)c2)cc1)C(=O)N1CCN(Cc2cccc(Cl)c2Cl)CC1 [Example 311] | – | < 1500 nM | 91 to 100%
34 | N[C@@H](Cc1ccc(-c2cc(Cl)cc(Cl)c2)cc1)C(=O)N1CCN(Cc2cccc(Cl)c2Cl)CC1 [Example 312] | – | 1500 to 3000 nM | 91 to 100%
35 | Cc1ccccc1-c1ccc(C[C@H](N)C(=O)N2CCN(Cc3cccc(Cl)c3Cl)CC2)cc1 [Example 313] | – | 1500 to 3000 nM | 91 to 100%
36 | N[C@@H](Cc1ccc(-c2ccc(-c3ccccc3)cc2)cc1)C(=O)N1CCN(Cc2cccc(Cl)c2Cl)CC1 [Example 314] | – | 1500 to 3000 nM | 91 to 100%
37 | N[C@@H](Cc1ccc(-c2ccccc2C(F)(F)F)cc1)C(=O)N1CCN(Cc2cccc(Cl)c2Cl)CC1 [Example 315] | – | 1500 to 3000 nM | 91 to 100%

Further lines, results first:

Row | Displacement Rate (%) (at 10 μM) | IC50 | inhibition at 10 µM | Structure (SMILES)
38 | +++ (+++ = 91-100) | < 1500 nM | – | N[C@@H](Cc1ccc(OCCc2ccc(Br)cc2)cc1)C(=O)N1CCN(Cc2cccc(Cl)c2Cl)CC1 [Example 241]
39 | +++ (+++ = 91-100) | < 1500 nM | – | N[C@@H](Cc1ccc(OCCc2cccc3ccccc23)cc1)C(=O)N1CCN(Cc2cccc(Cl)c2Cl)CC1 [Example 244]
40 | +++ (+++ = 91-100) | < 1500 nM | – | N[C@@H](Cc1ccc(OCCc2ccc(Cl)cc2)cc1)C(=O)N1CCN(Cc2cccc(Cl)c2Cl)CC1 [Example 245]
41 | +++ (+++ = 91-100) | < 1500 nM | – | N[C@@H](Cc1ccc(OCCc2ccc(F)cc2)cc1)C(=O)N1CCN(Cc2cccc(Cl)c2Cl)CC1 [Example 247]
42 | +++ (+++ = 91-100) | < 1500 nM | – | N[C@@H](Cc1ccc(OCCc2cccc(OCc3ccccc3)c2)cc1)C(=O)N1CCN(Cc2cccc(Cl)c2Cl)CC1 [Example 250]
43 | +++ (+++ = 91-100) | < 1500 nM | – | N[C@@H](Cc1ccc(OCCc2ccc(OCc3ccccc3)cc2)cc1)C(=O)N1CCN(Cc2cccc(Cl)c2Cl)CC1 [Example 251]
44 | +++ (+++ = 91-100) | < 1500 nM | – | N[C@@H](Cc1ccc(OCCc2ccccc2OCc2ccccc2)cc1)C(=O)N1CCN(Cc2cccc(Cl)c2Cl)CC1 [Example 252]
45 | +++ (+++ = 91-100) | < 1500 nM | – | N[C@@H](Cc1ccc(OCCc2ccccc2-c2ccccc2)cc1)C(=O)N1CCN(Cc2cccc(Cl)c2Cl)CC1 [Example 253]
46 | +++ (+++ = 91-100) | < 1500 nM | – | COc1ccc(CCOc2ccc(C[C@H](N)C(=O)N3CCN(Cc4cccc(Cl)c4Cl)CC3)cc2)cc1 [Example 254]
47 | +++ (+++ = 91-100) | < 1500 nM | – | N[C@@H](Cc1ccc(OCCc2ccc3ccccc3c2)cc1)C(=O)N1CCN(Cc2cccc(Cl)c2Cl)CC1 [Example 256]
48 | +++ (+++ = 91-100) | < 1500 nM | – | N[C@@H](Cc1ccc(OCCCc2ccc(OCc3ccccc3)cc2)cc1)C(=O)N1CCN(Cc2cccc(Cl)c2Cl)CC1 [Example 260]
49 | +++ (+++ = 91-100) | < 1500 nM | – | N[C@@H](Cc1ccc(OCCCc2ccccc2)cc1)C(=O)N1CCN(Cc2cccc(Cl)c2Cl)CC1 [Example 261]
50 | +++ (+++ = 91-100) | < 1500 nM | – | N[C@@H](Cc1ccc(OCCCCc2ccccc2)cc1)C(=O)N1CCN(Cc2cccc(Cl)c2Cl)CC1 [Example 262]
51 | ++ (++ = 71-90) | 1500 to 3000 nM | – | COc1ccc(CCCOc2ccc(C[C@H](N)C(=O)N3CCN(Cc4cccc(Cl)c4Cl)CC3)cc2)cc1 [Example 264]
52 | ++ (++ = 71-90) | 1500 to 3000 nM | – | CN(CCOc1ccc(C[C@H](N)C(=O)N2CCN(Cc3cccc(Cl)c3Cl)CC2)cc1)Cc1ccccc1 [Example 285]
53 | + (+ = 35-70) | > 3000 nM | – | CN(CCCOc1ccc(C[C@H](N)C(=O)N2CCN(Cc3cccc(Cl)c3Cl)CC2)cc1)Cc1ccccc1 [Example 287]
54 | – | < 1500 nM | 91 to 100% | N[C@@H](Cc1ccc(-c2ccc(Oc3ccccc3)cc2)cc1)C(=O)N1CCN(Cc2cccc(Cl)c2Cl)CC1 [Example 302]
